Values of other authors as cited in patent US7972386B2, “Bleaching of substrates” (Conopco, Inc., priority 2005, dated 2011).

Details: at 20° C.

water solubility: 10.8 g per litre
Compound: CN1CCN(C)CCN(C)CC1.CN1CCN(C)CCN(C)CC1.F[P-](F)(F)(F)(F)F.F[P-](F)(F)(F)(F)F.O.[Mn+4].[Mn+4].[O-2].[O-2].[O-2] [[Mn2O3(Me3-TACN)2](PF6)2•H2O, [Mn2O3(Me3-TACN)2] (PF6)2.H2O]
